Laboratory results taken from patent publication US20220317138A1, “METHODS FOR DETERMINING THE CONCENTRATION OF A CARBAPENEM ANTIBIOTIC IN A BIOLOGICAL SAMPLE” (priority 2019, published 2022).
Like-named read-outs stand apart in the source and are kept apart here.

What was measured:
[1] = molecular target: T1, beta-lactamase class D OXA-48 (Klebsiella pneumoniae, UniProt Q6XEC0); assay type: biochemical; conditions: for Accuracy <> (average) / [Meropenem] <> (average): average of 5 replicates
Description: The specificity (or selectivity) of the method according to an embodiment of the invention is defined as the ability of the method to measure the concentration of a carbapenem antibiotic (such as meropenem) in presence of an excess of another beta-lactam antibiotic (second beta-lactam) currently used in ICUs (see Table 4).
To determine the specificity of the method illustrating the invention for carbapenem antibiotics, in particular meropenem, versus other beta-lactam antibiotics, stock-solutions of second beta-lactam antibiotics were prepared in water.
An excess of a second beta-lactam concentration of up to 10 times the concentration of meropenem was used.

[2] = test system: AmpCHD beta-lactamase (class C); assay: Screening of beta-lactamases by competition, nitrocefin as reporter substrate; assay type: biochemical
[3] = test system: Imp4 beta-lactamase (class B); assay: as above; assay type: biochemical
[4] = molecular target: Ndm1 beta-lactamase (class B) (Klebsiella pneumoniae, UniProt C7C422); assay type: biochemical; conditions: nitrocefin reporter
[5] = molecular target: P99 beta-lactamase (class C) (Enterobacter cloacae, UniProt P05364); assay type: biochemical; conditions: nitrocefin reporter
[6] = molecular target: Imp1 beta-lactamase (class B) (Serratia marcescens, UniProt P52699); assay type: biochemical; conditions: nitrocefin reporter
[7] = test system: Per2 beta-lactamase (class A); assay: Screening of beta-lactamases by competition, nitrocefin as reporter substrate; assay type: biochemical
OXA-48 = OXA-48 (Klebsiella pneumoniae, UniProt Q6XEC0); conditions: OXA-48, for meropenem; cited from earlier work
[8] = molecular target: CTXM15 beta-lactamase (class A) (Escherichia coli, UniProt Q9EXV5); assay type: biochemical; conditions: nitrocefin reporter
OXA-163 = conditions: OXA-163, for meropenem; cited from earlier work
[9] = molecular target: Oxa48 beta-lactamase (class D) (Klebsiella pneumoniae, UniProt Q6XEC0); assay type: biochemical; conditions: nitrocefin reporter
[10] = molecular target: T1, beta-lactamase class D OXA-48; assay type: biochemical; conditions: OXA-48, nitrocefin, 482 nm
[11] = molecular target: BlaP beta-lactamase (class A) (Bacillus licheniformis, UniProt P00808); assay type: biochemical; conditions: nitrocefin reporter
[12] = molecular target: Kpc2 beta-lactamase (class A) (Klebsiella pneumoniae, UniProt Q9F663); assay type: biochemical; conditions: nitrocefin reporter
[13] = Activity loss of the beta-lactamase in 1 h; assay type: physicochemical; conditions: enzyme activity
[14] = Meropenem 1.2 mg/L, second β-lactam 10.0 mg/L (8.4 times excess)
[15] = Meropenem 20.0 mg/L, second β-lactam 200.0 mg/L (10 times excess)

Sequence of P99 beta-lactamase (class C) (P05364 21-381): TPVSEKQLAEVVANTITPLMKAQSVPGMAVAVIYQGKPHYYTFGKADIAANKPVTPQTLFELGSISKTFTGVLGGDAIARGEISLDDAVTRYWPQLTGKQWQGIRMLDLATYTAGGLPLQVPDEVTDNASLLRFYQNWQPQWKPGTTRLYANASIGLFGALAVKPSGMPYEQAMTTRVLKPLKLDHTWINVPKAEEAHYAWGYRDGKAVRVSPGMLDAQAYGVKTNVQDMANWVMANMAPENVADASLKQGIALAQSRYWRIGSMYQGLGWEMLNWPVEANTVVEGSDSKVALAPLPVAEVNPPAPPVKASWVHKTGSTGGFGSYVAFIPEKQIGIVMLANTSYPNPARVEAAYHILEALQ
Sequence of Imp1 beta-lactamase (class B) (P52699 19-246 limits assumed): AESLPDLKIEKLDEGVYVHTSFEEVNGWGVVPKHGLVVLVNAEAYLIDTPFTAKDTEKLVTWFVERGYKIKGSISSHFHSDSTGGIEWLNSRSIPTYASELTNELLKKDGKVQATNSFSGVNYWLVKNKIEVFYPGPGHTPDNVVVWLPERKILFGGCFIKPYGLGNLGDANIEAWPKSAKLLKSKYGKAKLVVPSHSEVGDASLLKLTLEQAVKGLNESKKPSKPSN
Sequence of CTXM15 beta-lactamase (class A) (Q9EXV5 29-291 limits assumed): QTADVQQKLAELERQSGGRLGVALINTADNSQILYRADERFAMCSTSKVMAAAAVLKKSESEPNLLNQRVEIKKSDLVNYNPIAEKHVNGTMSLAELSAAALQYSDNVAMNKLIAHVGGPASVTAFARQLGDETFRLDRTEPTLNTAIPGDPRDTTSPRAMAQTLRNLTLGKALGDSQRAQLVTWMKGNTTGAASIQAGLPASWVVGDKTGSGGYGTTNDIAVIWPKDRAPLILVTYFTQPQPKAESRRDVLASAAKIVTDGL
Sequence of BlaP beta-lactamase (class A) (P00808 27-307 limits assumed): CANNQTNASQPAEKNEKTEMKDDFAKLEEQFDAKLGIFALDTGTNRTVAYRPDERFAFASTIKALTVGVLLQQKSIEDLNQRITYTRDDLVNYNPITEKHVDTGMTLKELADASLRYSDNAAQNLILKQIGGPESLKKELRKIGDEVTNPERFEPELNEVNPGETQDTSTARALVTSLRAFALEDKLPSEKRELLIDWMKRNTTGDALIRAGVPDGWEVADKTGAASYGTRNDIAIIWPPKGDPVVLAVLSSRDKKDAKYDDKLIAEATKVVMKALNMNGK

| Molecule | Accuracy <> (average) [1, 14] | [Meropenem] <> (average) [1, 14] | Accuracy Replicate 1 [1, 14] | [Meropenem] Replicate 1 [1, 14] | Accuracy Replicate 2 [1, 14] | [Meropenem] Replicate 2 [1, 14] | Accuracy Replicate 3 [1, 14] | [Meropenem] Replicate 3 [1, 14] | Accuracy Replicate 4 [1, 14] | [Meropenem] Replicate 4 [1, 14] | Accuracy Replicate 5 [1, 14] | [Meropenem] Replicate 5 [1, 14] | Accuracy <> (average) [1, 15] | [Meropenem] <> (average) [1, 15] | Accuracy Replicate 1 [1, 15] | [Meropenem] Replicate 1 [1, 15] | Accuracy Replicate 2 [1, 15] | [Meropenem] Replicate 2 [1, 15] | Accuracy Replicate 3 [1, 15] | [Meropenem] Replicate 3 [1, 15] | other results |
| --- | --- | --- | --- | --- | --- | --- | --- | --- | --- | --- | --- | --- | --- | --- | --- | --- | --- | --- | --- | --- | --- |
| Cn1nnnc1SCC1=C(C(=O)O)N2C(=O)[C@@H](NC(=O)[C@H](O)c3ccccc3)[C@H]2SC1 [Cefamandole ®, Cefamandole] | 115% | 1.3 mg/L | 112% | 1.3 mg/L | 116% | 1.3 mg/L | 114% | 1.3 mg/L | 123% | 1.4 mg/L | 112% | 1.3 mg/L | 99% | 22.0 mg/L | 97% | 21.5 mg/L | 98% | 21.9 mg/L | 99% | 22.2 mg/L | Accuracy Replicate 4 [1, 15]: 105%; [Meropenem] Replicate 4 [1, 15]: 23.4 mg/L; Accuracy Replicate 5 [1, 15]: 94%; [Meropenem] Replicate 5 [1, 15]: 21.0 mg/L; hydrolysis rate symbol, (Vmax/V0)-1 [2]: ++ (1-10); hydrolysis rate symbol, (Vmax/V0)-1 [3]: ++ (1-10); hydrolysis rate symbol, (Vmax/V0)-1 [4]: + (0.1-1); hydrolysis rate symbol, (Vmax/V0)-1 [5]: ++ (1-10); hydrolysis rate symbol, (Vmax/V0)-1 [6]: ++ (1-10); hydrolysis rate symbol, (Vmax/V0)-1 [7]: + (0.1-1) |
| CO/N=C(\C(=O)N[C@@H]1C(=O)N2C(C(=O)O)=C(COC(C)=O)CS[C@H]12)c1csc(N)n1 [Cefotaxim ® Sandoz] | 111% | 1.3 mg/L | 109% | 1.3 mg/L | 116% | 1.3 mg/L | 107% | 1.2 mg/L | 110% | 1.3 mg/L | 115% | 1.3 mg/L | 92% | 20.5 mg/L | 93% | 20.8 mg/L | 94% | 20.9 mg/L | 91% | 20.2 mg/L | Accuracy Replicate 4 [1, 15]: 91%; [Meropenem] Replicate 4 [1, 15]: 20.2 mg/L; Accuracy Replicate 5 [1, 15]: 91%; [Meropenem] Replicate 5 [1, 15]: 20.2 mg/L; hydrolysis rate symbol, (Vmax/V0)-1 [2]: + (0.1-1); hydrolysis rate symbol, (Vmax/V0)-1 [3]: + (0.1-1); hydrolysis rate symbol, (Vmax/V0)-1 [5]: ++++ (>100); hydrolysis rate symbol, (Vmax/V0)-1 [6]: + (0.1-1) |
| C[C@@H](O)[C@H]1C(=O)N2C(C(=O)O)=C(S[C@@H]3CN[C@H](C(=O)N(C)C)C3)[C@H](C)[C@H]12 [Meropenem, meropenem] | 100% | 1.2 mg/L | 98% | 1.1 mg/L | 100% | 1.2 mg/L | 97% | 1.1 mg/L | 108% | 1.3 mg/L | 97% | 1.1 mg/L | 100% | 20.2 mg/L | 103% | 20.7 mg/L | 104% | 20.9 mg/L | 98% | 19.8 mg/L | Accuracy Replicate 4 [1, 15]: 98%; [Meropenem] Replicate 4 [1, 15]: 19.9 mg/L; Accuracy Replicate 5 [1, 15]: 97%; [Meropenem] Replicate 5 [1, 15]: 19.6 mg/L; hydrolysis rate symbol, (Vmax/V0)-1 [2]: + (0.1-1); Km (OXA-48): 200 µM; hydrolysis rate symbol, (Vmax/V0)-1 [3]: + (0.1-1); hydrolysis rate symbol, (Vmax/V0)-1 [8]: +++ (10-100); Km (OXA-163): 2200 µM; hydrolysis rate symbol, (Vmax/V0)-1 [5]: +++ (10-100); hydrolysis rate symbol, (Vmax/V0)-1 [9]: +++ (10-100); hydrolysis rate symbol, (Vmax/V0)-1 [6]: + (0.1-1); lower limit of quantification (LLOQ) [10]: 0.5 mg/L; upper limit of quantification (ULOQ) [10]: 20 mg/L; hydrolysis rate symbol, (Vmax/V0)-1 [11]: + (0.1-1); hydrolysis rate symbol, (Vmax/V0)-1 [12]: + (0.1-1) |
| CC1(C)S[C@@H]2[C@H](NC(=O)[C@H](C(=O)O)c3ccsc3)C(=O)N2[C@H]1C(=O)O [Ticarpen ®] | 112% | 1.3 mg/L | 121% | 1.4 mg/L | 122% | 1.4 mg/L | 102% | 1.2 mg/L | 111% | 1.3 mg/L | 105% | 1.2 mg/L | 101% | 22.6 mg/L | 102% | 22.7 mg/L | 105% | 23.4 mg/L | 104% | 23.1 mg/L | Accuracy Replicate 4 [1, 15]: 98%; [Meropenem] Replicate 4 [1, 15]: 21.9 mg/L; Accuracy Replicate 5 [1, 15]: 98%; [Meropenem] Replicate 5 [1, 15]: 21.9 mg/L; hydrolysis rate symbol, (Vmax/V0)-1 [2]: + (0.1-1); hydrolysis rate symbol, (Vmax/V0)-1 [8]: ++ (1-10); hydrolysis rate symbol, (Vmax/V0)-1 [5]: ++++ (>100); hydrolysis rate symbol, (Vmax/V0)-1 [9]: + (0.1-1); hydrolysis rate symbol, (Vmax/V0)-1 [7]: ++ (1-10) |
| Kpc2: class A beta-lactamase screened (protein, UniProt Q9F663 25-293, looked up) Carbapenem-hydrolyzing …: LTNLVAEPFAKLEQDFGGSIGVYAMDTGSGATVSYRAEERFPLCSSFKGFLAAAVLARSQQQAGLLDTPIRYGKNALVPWSPISEKYLTTGMTVAELSAAAVQYSDNAAANLLLKELGGPAGLTAFMRSIGDTTFRLDRWELELNSAIPGDARDTSSPRAVTESLQKLTLGSALAAPQRQQFVDWLKGNTTGNHRIRAAVPADWAVGDKTGTCGVYGTANDYAVVWPTGRAPIVLAVYTRAPNKDDKHSEAVIAAAARLALEGLGVNGQ |  |  |  |  |  |  |  |  |  |  |  |  |  |  |  |  |  |  |  |  | Activity loss in 1 h [13]: 2% |
| Oxa48: beta-lactamase class D OXA-48 from Klebsiella pneumoniae, used as biosensor (protein, listed as Klebsiella pneumoniae, PEPTIDE (1)..(22) SIGNAL PEPTIDE, beta-lactamase class D OXA-48 from Klebsiella pneumoniae, used as biosensor) MRVLALSAVFLVASIIGMPAVAKEWQENKSWNAHFTEHKSQGVVVLWNENKQQGFTNNLKRANQAFLPASTFKIPNSLIALDLGVVKDEHQVFKWDGQTRDIATWNRDHNLITAMKYSVVPVYQEFARQIGEARMSKMLHAFDYGNEDISGNVDSFWLDGGIRISATEQISFLRKLYHNKLHVSERSQRIVKQAMLTEANGDYIIRAKTGYSTRIEPKIGWWVGWVELDDNVWFFAMNMDMPTSDGLGLRQAITKEVLKQEKIIP |  |  |  |  |  |  |  |  |  |  |  |  |  |  |  |  |  |  |  |  | Activity loss in 1 h [13]: 0% |
| Ndm1: class B beta-lactamase screened (protein, UniProt C7C422 29-270, looked up) Metallo-beta-lactamase type 2: GEIRPTIGQQMETGDQRFGDLVFRQLAPNVWQHTSYLDMPGFGAVASNGLIVRDGGRVLVVDTAWTDDQTAQILNWIKQEINLPVALAVVTHAHQDKMGGMDALHAAGIATYANALSNQLAPQEGMVAAQHSLTFAANGWVEPATAPNFGPLKVFYPGPGHTSDNITVGIDGTDIAFGGCLIKDSKAKSLGNLGDADTEHYAASARAFGAAFPKASMIVMSHSAPDSRAAITHTARMADKLR |  |  |  |  |  |  |  |  |  |  |  |  |  |  |  |  |  |  |  |  | Activity loss in 1 h [13]: 0% |
